Test results: patent US20250090699A1, “FAP TARGETING CYCLIC PEPTIDES AND CONJUGATES THEREOF” (Novartis AG, priority 2023, published 2025)
Where a name gives a salt, the structure may show the parent alone. Starred links: 1 amine or outer side, 2 acyl side, 3 side chain; linkers in the order of their positions; H or OH if unused. Positions of bridges follow the written chain, without caps; N, C: chain ends. Non-standard residues stand in square brackets, D forms with d. Residues, ends and D or L forms follow the SMILES beside them. Groups on a side chain read outwards from the residue. Chains are numbered I, II in the order given. *: point of attachment. F(4amPEG2NHDOTA-Lu) = lutetium complex of (S)-2,2',2''-(10-(1-(4-(2-amino-2-carboxyethyl)phenyl)-3,12-dioxo-5,8-dioxa-2,11-diazatridecan-13-yl)-1,4,7,10-tetraazacyclododecane-1,4,7-triyl)triacetic acid (Phe with 4-aminomethyl-PEG2-DOTA-Lu), O=C([O-])CN1CCN(CC(=O)[O-])CCN(CC(=O)NCCOCCOCC(=O)NCc2ccc(C[C@H](N[*:1])C(=O)[*:2])cc2)CCN(CC(=O)[O-])CC1.[Lu+3]; X1 = O=C(O)CN1CCN(CC(=O)O)CCN(CC(=O)NC(CC(=O)NCCOCCOCC(=O)[*:1])CC(=O)NCCOCCOCC(=O)[*:2])CCN(CC(=O)O)CC1; Q(Pyrro(2CN4F2)) = 2-amino-5-(2-cyano-4,4-difluoropyrrolidin-1-yl)-5-oxopentanoic acid; COpipzaa = 4-(carboxymethyl)piperazine-1-carbonyl, O=C(O)CN1CCN(C(=O)*)CC1; DOTA = O=C(O)CN1CCN(CC(=O)O)CCN(CC(=O)*)CCN(CC(=O)O)CC1; Phe(4-CH2NH2) = NCc1ccc(C[C@H](N)C(=O)O)cc1; Piperazinyl(4-CH2COOH) = O=C(O)CN1CCN(*)CC1; NMeF = CN[C@@H](Cc1ccccc1)C(=O)O; Aoc(2) = CCCCCC[C@H](N)C(=O)O; hSer = N[C@@H](CCO)C(=O)O; AEEA = NCCOCCOCC(=O)O; CO = O=C([*:1])[*:2]; Propyl = CCC*

What was measured:
human FAP [1] = target: T1, human FAP (Homo sapiens, UniProt Q12884); assay: Surface plasmon resonance (SPR) for peptide affinity, human FAP; assay type: binding; details: read-out: h. FAP, SPR, KD
T1 construct: the biotinylated His, Avi tag, human FAP (26-760, FAP-H82Q6); His; Avi tag (biotinylated); purchased AcroBiosystems FAP-H82Q6
T1 sequence (Q12884 26-760): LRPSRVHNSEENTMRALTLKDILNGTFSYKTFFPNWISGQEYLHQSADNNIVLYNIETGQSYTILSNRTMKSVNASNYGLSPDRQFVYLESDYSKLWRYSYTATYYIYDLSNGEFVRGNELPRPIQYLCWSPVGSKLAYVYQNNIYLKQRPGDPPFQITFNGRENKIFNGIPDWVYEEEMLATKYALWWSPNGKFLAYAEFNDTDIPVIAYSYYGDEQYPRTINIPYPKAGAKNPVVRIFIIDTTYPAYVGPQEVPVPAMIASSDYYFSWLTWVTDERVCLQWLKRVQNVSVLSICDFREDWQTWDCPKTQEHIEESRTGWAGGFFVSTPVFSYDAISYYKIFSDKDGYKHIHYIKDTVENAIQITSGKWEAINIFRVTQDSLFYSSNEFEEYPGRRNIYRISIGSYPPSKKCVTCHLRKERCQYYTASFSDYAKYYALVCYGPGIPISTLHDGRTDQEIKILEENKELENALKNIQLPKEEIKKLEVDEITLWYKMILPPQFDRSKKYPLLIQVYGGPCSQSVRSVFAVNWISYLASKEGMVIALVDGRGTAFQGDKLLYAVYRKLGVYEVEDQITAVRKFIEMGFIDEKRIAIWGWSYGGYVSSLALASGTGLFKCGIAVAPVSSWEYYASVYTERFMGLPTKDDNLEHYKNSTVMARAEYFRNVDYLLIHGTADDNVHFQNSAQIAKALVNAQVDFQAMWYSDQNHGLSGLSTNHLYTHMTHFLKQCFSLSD
Procedure: Peptide affinities (KD) were determined by SPR using a Biacore™ 8K device (Cytiva) towards the following proteins: biotinylated His, Avi tag, human FAP (26-760, FAP-H82Q6), biotinylated His, Avi tag, mouse FAP (26-761, FAP-M82Q5), His tag, human DPP4 (34-766, DP4-H82E3), all purchased from AcroBiosystems and His tag, mouse DPP4 (29-760, 954-SE) from R&D Systems. The FAP proteins and their homologous were diluted to a concentration of 2 μg/mL into acetate buffer pH 5.5, then immobilized onto a CM5 sensorchip (Cytiva, BR-1005-30) to reach a response around 2000 R U. The running buffer HBS-EP+pH 7.6 (20× from Teknova CAT. No: H8022) contained 10 mM HEPES pH 7.6, 150 mM NaCl, 3 mM EDTA, 0.05% Tween20 and 2% DMSO. Experiments were carried out at 25° C. using a flow rate of 30 μL/min. Compounds were tested in single cycle kinetic mode at 8 different concentrations. Curve fitting was performed using the Biacore™ 8K evaluation software. The sensorgrams were fitted by applying a 1:1 binding model to calculate kinetic rate constants and equilibrium dissociation constants (KD).
For this assay, the setup had the same conditions (flow rate, running buffer, peptide dilution) as described above for the CM5 method. The oligo CAP reagent obtained in the CAPture Kit (Ref. 28920234) was 1/5 diluted into running buffer and used with a contact time of 300 s at a flow rate of 2 μL/min. The human and mouse FAP constructs described above were used (from AcroBiosystems or produced in house). The FAP proteins were diluted to a concentration of 2 μg/mL into acetate pH 5.5, 0.05% Tween20 and used with a contact time of 600 s at a flow rate of 10 μL/min. The peptides were tested with an association time of 280 s followed by a dissociation time of 3000 s at a flow rate of 30 μL/min. The regeneration was done using the regeneration solution (8 M guanidine-HCl, 1 M NaOH) as obtained with a contact time of 270 s at a flow rate of 10 μL/min. […] The compounds marked with an asterisk were tested against human and mouse DDP4.

human FAP [2] = target: T1, human FAP; assay: Enzymatic FAP competition assay (Z-Gly-Pro-AMC fluorescence), human FAP; assay type: biochemical; details: read-out: h. FAP, Enz., IC50
Procedure, shortened: (§1)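 Biotinylated His/Avi-tagged FAP ectodomain (human 26-760, mouse 26-761) at 0.01 nM, preincubated 24 h with peptides (14 concentrations, up to 1 μM) in pH 7.5 phosphate, 150 mM NaCl, 0.05% Tween20, 1% DMSO. Then 50 μM Z-Gly-Pro-AMC, 4 h at 22-24° C; AMC fluorescence (380/460 nm) gave IC50 from duplicate points.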

mouse FAP [3] = target: T2, mouse FAP (Mus musculus, UniProt P97321); assay: Surface plasmon resonance (SPR) for peptide affinity, mouse FAP; assay type: binding
T2 construct: biotinylated His, Avi tag, mouse FAP (26-761, FAP-M82Q5); His; Avi tag (biotinylated); purchased AcroBiosystems FAP-M82Q5
T2 sequence (P97321 26-761): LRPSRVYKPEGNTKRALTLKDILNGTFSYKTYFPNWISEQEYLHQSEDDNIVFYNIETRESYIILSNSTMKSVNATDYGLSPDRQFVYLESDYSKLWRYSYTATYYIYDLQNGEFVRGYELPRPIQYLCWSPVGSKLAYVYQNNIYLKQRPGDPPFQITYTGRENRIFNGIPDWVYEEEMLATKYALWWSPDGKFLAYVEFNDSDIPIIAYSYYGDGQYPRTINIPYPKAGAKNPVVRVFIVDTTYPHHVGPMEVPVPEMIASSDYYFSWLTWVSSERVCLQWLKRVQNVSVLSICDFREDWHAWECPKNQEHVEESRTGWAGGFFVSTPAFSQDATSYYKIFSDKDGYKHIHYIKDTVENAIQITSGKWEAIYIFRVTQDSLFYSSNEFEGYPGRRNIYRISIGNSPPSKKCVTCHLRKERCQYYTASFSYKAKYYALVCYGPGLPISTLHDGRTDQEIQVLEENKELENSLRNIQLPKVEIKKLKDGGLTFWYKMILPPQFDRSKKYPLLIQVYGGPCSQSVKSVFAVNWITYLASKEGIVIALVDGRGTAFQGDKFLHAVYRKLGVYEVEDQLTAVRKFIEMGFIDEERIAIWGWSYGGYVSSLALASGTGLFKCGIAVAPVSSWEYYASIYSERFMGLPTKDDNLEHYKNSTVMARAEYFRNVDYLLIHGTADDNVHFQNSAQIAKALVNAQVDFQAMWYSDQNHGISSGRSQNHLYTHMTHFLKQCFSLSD
Procedure, shortened: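 Biotinylated His/Avi-tagged FAP ectodomains (human 26-760, mouse 26-761) captured or immobilized on Biacore sensor chips; peptides run at 25 °C in HBS-EP+ pH 7.6 with 2% DMSO, single-cycle kinetics, 8 concentrations. KD from 1:1 binding-model fit of sensorgrams.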

mouse FAP [4] = target: T2, mouse FAP; assay: Enzymatic FAP competition assay (Z-Gly-Pro-AMC fluorescence), mouse FAP; assay type: biochemical; details: read-out: m. FAP, Enz., IC50
Procedure, shortened: as §1

Kd (human FAP [1]) | IC50 (human FAP [2]) | Kd (mouse FAP [3]) | IC50 (mouse FAP [4]) | Compound
< 0.018 nM | 0.018 nM | < 0.04 nM | 0.031 nM | Gly-Gly-NMePhe-F(4amPEG2NHDOTA-Lu)-Q(Pyrro(2CN4F2))-Trp-Gly-K(COpipzaa)-Asp-D-Pro (cyclo(GG[NMeF][F(4amPEG2NHDOTA-Lu)][Q(Pyrro(2CN4F2))]WGK(COpipzaa)D[dP]); also: Lu complex) [Example C19]
< 0.011 nM | 0.005 nM | < 0.018 nM | 0.013 nM | CCCCCC[C@@H]1NC(=O)[C@H](Cc2ccc(CNC(=O)COCCOCCNC(=O)CN3CCN(CC(=O)O)CCN(CC(=O)O)CCN(CC(=O)O)CC3)cc2)NC(=O)[C@H](Cc2ccccc2)N(C)C(=O)CNC(=O)CNC(=O)[C@H]2CCCN2C(=O)[C@H](CC(=O)O)NC(=O)[C@H](CCCCNC(=O)N2CCN(CC(=O)O)CC2)NC(=O)CNC(=O)[C@H](Cc2c[nH]c3ccccc23)NC1=O [Example B1, Gly-Gly-NMePhe-F(4amPEG2NHDOTA)-Aoc-Trp-Gly-K(COpipzaa)-Asp-D-Pro] (cyclo(GG[NMeF][Phe(4-CH2NH2)]([AEEA-DOTA])[Aoc(2)]WGK([CO-Piperazinyl(4-CH2COOH)])D[dP]))
< 0.043 nM | 0.035 nM | < 0.078 nM | 0.144 nM | CCCOCC[C@@H]1NC(=O)[C@H](Cc2ccc(CNC(=O)COCCOCCNC(=O)CC(CC(=O)NCCOCCOCC(=O)NCc3ccc(C[C@@H]4NC(=O)[C@H](Cc5ccccc5)N(C)C(=O)CNC(=O)CNC(=O)[C@H]5CCCN5C(=O)[C@H](CC(=O)O)NC(=O)[C@H](CCCCNC(=O)N5CCN(CC(=O)O)CC5)NC(=O)CNC(=O)[C@H](Cc5c[nH]c6ccccc56)NC(=O)[C@H](CCOCCC)NC4=O)cc3)NC(=O)CN3CCN(CC(=O)O)CCN(CC(=O)O)CCN(CC(=O)O)CC3)cc2)NC(=O)[C@H](Cc2ccccc2)N(C)C(=O)CNC(=O)CNC(=O)[C@H]2CCCN2C(=O)[C@H](CC(=O)O)NC(=O)[C@H](CCCCNC(=O)N2CCN(CC(=O)O)CC2)NC(=O)CNC(=O)[C@H](Cc2c[nH]c3ccccc23)NC1=O [Example M3] (I: cyclo(GG[NMeF][Phe(4-CH2NH2)][hSer](Propyl)WGK([CO-Piperazinyl(4-CH2COOH)])D[dP]) / II: cyclo(GG[NMeF][Phe(4-CH2NH2)][hSer](Propyl)WGK([CO-Piperazinyl(4-CH2COOH)])D[dP]); linker I:4-II:4 via X1)

Compound | Kd (human FAP [1]) | IC50 (human FAP [2]) | Kd (mouse FAP [3]) | IC50 (mouse FAP [4])
CCCCCC[C@@H]1NC(=O)[C@H](Cc2ccc(CNC(=O)COCCOCCN)cc2)NC(=O)[C@H](Cc2ccccc2)N(C)C(=O)CNC(=O)CNC(=O)[C@H]2CCCN2C(=O)[C@H](CC(=O)O)NC(=O)[C@H](CCCCNC(=O)N2CCN(CC(=O)O)CC2)NC(=O)CNC(=O)[C@H](Cc2c[nH]c3ccccc23)NC1=O [Example A1, 2-((9S,12S,15S,18S,24S,27S,32aR)-18-((1H-indol-3-yl)methyl)-12-(4-((2-(2-(2-aminoethoxy)ethoxy)acetamido)methyl)benzyl)-9-benzyl-24-(4-(4-(carboxymethyl)piperazine-1-carboxamido)butyl)-15-hexyl-8-methyl-1,4,7,10,13,16,19,22,25,28-decaoxodotriacontahydropyrrolo[1,2-a][1,4,7,10,13,16,19,22,25,28]decaazacyclotriacontin-27-yl)acetic acid TFA salt] (cyclo([Aoc(2)]WGK([CO-Piperazinyl(4-CH2COOH)])D[dP]GG[NMeF][Phe(4-CH2NH2)](AEEA))) | < 0.007 nM | 0.009 nM | < 0.018 nM | 0.028 nM
